Like-named read-outs stand apart in the source and are kept apart here.
How the values were obtained:
[1] = Test for converting Compound A into Compound B (oral 14C Compound A, Radio-HPLC); format: in vivo, Wistar rats
Description: Male 8 week-old Wistar rats (purchased from Japan SLC, Inc.) under fasting conditions were orally administered with ^14C labeled Compound A at a dose of 1 mg/kg, and the amounts of Compound B in plasma, urine and bile were determined by Radio-HPLC.

[2] = test system: carrageenin induced paw edema in rats; test: Carrageenin induced paw edema in rats; format: in vivo, Wistar rats; conditions: for Volume of edema: 3 h after carrageenin, mean ± SE
Description: To right hind paws of male 7 week-old Wistar rats (purchased from Japan SLC, Inc.) 0.1 ml of 1% λ-carrageenin was subcutaneously injected to cause paw edema reaction (n=5). Compound A at doses of 1 to 25 mg/kg and indomethacin at a dose of 5 mg/kg were orally administered 15 and 60 minutes before administration of carrageenin, respectively.
Three hours after administration of carrageenin, when the paw edema reaction reached maximum, the effectiveness was evaluated from the volumes of the right hind paw edema.

DSS induced IBD model = test: 3% dextran sulfate sodium (DSS) induced acute rat IBD model (prophylactic effect); format: in vivo, Wistar rats; conditions: 10 mg/kg/day oral; for inhibition at 10 mg/kg/day: Rattus norvegicus, po, read-out: Inhibition rate (%)
Text: IBD was induced by freely allowing male 7 week-old Wistar rats (purchased from Japan SLC, Inc.) to ingest 3% DSS solution (n=8). In the period of 7 days after initiating DSS administration, soft feces and blood feces scores were observed according to the following basis, and the sum of the soft feces score and blood feces score was obtained as the feces score of the individual animal.
• Soft feces score (0 to 3) • [0: nothing abnormal detected (NAD), • 1: slightly soft, • 2: soft, • 3: diarrhea] • Blood feces score (0 to 3) • [0: nothing abnormal detected (NAD), • 1: blood in feces, • 2: bright-red blood adhered on feces, • 3: melena]
1% Evans blue physiological saline was intravenously injected in an amount of 1 ml per rat 8 days after DSS exposure, and the animal was euthanized 30 minutes after that for excising the large intestine. After immobilizing the large intestine in the length of 7 to 8 cm from anus with 4% formalin buffer for 20 minutes, the intestine was longitudinally opened from the mesenterium side for photographing the rectal portion. Ulcer area was calculated by image analysis.
Compound A (10 mg/kg/day), or. sulfasalazine (100 mg/kg/day) or prednisolone (1 mg/kg/day) as a control compound was made into suspension in an agate mortar, which was orally administered twice a day at a dose of 5 ml/kg to each rat starting from a day before administration of DSS to a day before dissection. In this connection, 1% hydroxypropylmethyl cellulose solution (HPMC) was used as a solvent, which was administered at a dose of 5 ml/kg to the solvent treated group.

[3] = test system: DSS induced rat IBD chronic model; test: DSS induced rat IBD chronic model (therapeutic effect); format: in vivo, Wistar rats
Description: Colitis was induced by freely allowing male 7 week-old Wistar rats (purchased from Japan SLC, Inc.) to ingest 3% DSS solution for 3 days, and subsequently chronic IBD was induced by freely allowing to ingest 1% DSS solution starting from the 4th day of the test.
Compound A (2, 20 mg/kg/day), 5-aminosalicylic acid as a control (5-ASA: 200 mg/kg/day) and cyclosporine A (Cy A: 25 mg/kg/day) were administered to the animals starting from the 4th day of the test until the day of dissection (n=8 to 20).
The property of feces in individual animal was observed until the day before dissection, and the soft feces score and the blood feces score were determined according to the same basis as shown in Test Example 3 to obtain the sum of the soft feces score and blood feces score as the feces score.
Also, 1% Evans blue physiological saline was intravenously injected in an amount of 1 ml per rat on the day of dissection, and the animal was euthanized 30 minutes after that for excising the large intestine. After immobilizing the large intestine in the length of 7 to 8 cm from anus with 4% formalin buffer for 20 minutes, the intestine was longitudinally opened from the mesenterium side for photographing the rectal portion and measuring the rectum weight. The state and extent of eroded rectal portion were scored according to the following basis for making a macro observation score.
Macro observation score (0-5)
[0: normal, • 1: erosion formation in narrow ranges, • 2: weak erosion formation, without bleeding, • 3: moderate erosion formation and weak bleeding in narrow ranges, • 4: strong erosion formation and bleeding in narrow ranges, • 5: strong erosion formation and bleeding in wide ranges]
A therapeutic effect of Compound B orally administered was examined in the same manner as in Test Example 4 except that Compound B (20 mg/kg/day) was used in place of Compound A (n=12).

TNBS induced IBD model [4] = test: Trinitrobenzene sulfonic acid (TNBS) induced rat IBD model (therapeutic effect); format: in vivo, SD rats
Description: 8 week-old male SD rats (purchased from Charles River
Laboratories Japan, Inc.) were intrarectally treated with TNBS to induce enteritis, and divided into groups 2 days after the treatment with TNBS to initiate the administration of the drugs. A solvent, Compound A (2, 20, 50 mg/kg/day), or prednisolone (6 mg/kg/day) was orally administered twice a day, and the rats were subjected to autopsy 8 days after administration for determining the macro observation score. The evaluation of the score was conducted by the method described in Table 4 according to the judgment method by JOHN L. WALLACE et al. (Gastroenterology 1989; 96: 29-36).
Furthermore, the large intestine was cut to a length of 10 cm for measuring the wet weight of intestine.

in vivo = test: in vivo; set-up: species or system SD rats; conditions: both sexes, SD, rat, po
Description: To 6 week-old male and female SD rats (purchased from
Charles River Laboratories Japan, Inc.) a solvent (hydroxymethyl cellulose) or Compound A (100, 300, 1000 mg/kg/day) was administered orally and repeatedly for 26 consecutive weeks (n=15).

TNBS induced IBD model [5] = test: Trinitrobenzene sulfonic acid (TNBS) induced rat IBD model (therapeutic effect); format: in vivo, SD rats; conditions: 5 mg/kg × 2 oral, from 2 days after TNBS
[6] = cited from earlier work
[7] = 20 mg/kg/day from 4th day, vs solvent treated group

Compound: COc1cc2[nH]c(=O)c3nn(C(OC(=O)OC(C)C)C(C)C)nc3c(=O)c2cc1OC (stereo not shown) [Compound A, 2-(1-Isopropoxycarbonyloxy-2-methylpropyl)-7,8-dimethoxy-4(5H),10-dioxo-2H-1,2,3-triazolo[4,5-c][1]benzoazepine]
- Detection in plasma ([1]; 15 minutes after oral 14C labeled Compound A 1 mg/kg, fasting rats): not detected
- Detection in bile ([1]; bile collected for 8 hours after oral 14C labeled Compound A 1 mg/kg): not detected
- Metabolism of Compound A into Compound B on absorption ([1]; oral 1 mg/kg, rats): nearly all of Compound A was metabolized into Compound B
- Detection in urine ([1]; urine collected for 24 hours after oral 14C labeled Compound A 1 mg/kg): not detected
- Volume of edema ([2]; 1 mg/kg oral 15 min before carrageenin): 0.87 ± 0.04 mL
- Volume of edema ([2]; 5 mg/kg oral 15 min before carrageenin): 0.89 ± 0.04 mL
- Volume of edema ([2]; 25 mg/kg oral 15 min before carrageenin): 0.67 ± 0.05 mL
- Inhibitory effect on paw edema ([2]; any doses (1 to 25 mg/kg oral)): no inhibitory effect
- Side effects (DSS induced IBD model): without any side effects
- inhibition at 10 mg/kg/day (DSS induced IBD model; Table 2 (ulcer area reduction effect)): 36.4%
- inhibition at 10 mg/kg/day (DSS induced IBD model; Table 3 (feces score)): 40.7%
- ulcer area (DSS induced IBD model; Table 2 (title: ulcer area reduction effect), twice a day, mean ± SE): 291.3 ± 37.0
- Feces score (DSS induced IBD model; Table 3 (effectiveness on feces score), mean ± SE): 2.00 ± 0.53
- Effect on the feces score on the day before dissection (FIG. 3) ([3]; 2 mg/kg/day from 4th day): significant (P<0.005) ameliorating effect
- Effect on the increase of rectum weight (FIG. 2) ([3]; 2 mg/kg/day from 4th day, vs solvent treated group): significant (P<0.005, P<0.05) ameliorating effect
- Effect on macro observation score (FIG. 4) ([3]; 2 mg/kg, P=0.0509 category test, P=0.1161 segmentation test): inhibitory tendency
- Effect on the feces score on the day before dissection (FIG. 3) ([3]; 20 mg/kg/day from 4th day): significant (P<0.005) ameliorating effect
- Effect on the increase of rectum weight (FIG. 2) [3, 7]: significant (P<0.005, P<0.05) ameliorating effect
- Effect on the shortening of large intestine (FIG. 1) [3, 7]: significant (P<0.01) ameliorating effect
- Effect on macro observation score (FIG. 4) ([3]; 20 mg/kg/day, P=0.0006 category test, P=0.0003 segmentation test): significant ameliorating effect
- Side effects such as inhibition of weight gain ([3]; rat, in vivo): not observed
- Colonic ulceration score (TNBS induced IBD model [4]; 1 mg/kg × 2 oral, from 2 days after TNBS): 3.5 ± 0.4
- Colonic ulceration score (TNBS induced IBD model [4]; 25 mg/kg × 2 oral, from 2 days after TNBS): 3.3 ± 0.3
- Weight gain (TNBS induced IBD model [4]; Compound A treated group (2 to 50 mg/kg/day oral)): significant inhibition of weight gain was not observed
- Colonic ulceration score (TNBS induced IBD model [4]; Table 6 (title: colonic wet weight of large intestine, 10 cm), 25 mg/kg × 2 oral): 1.20 ± 0.04
- NOAEL at 26 weeks (in vivo): ≥ 1000 mg/kg/day
- Colonic ulceration score (TNBS induced IBD model [5]): 3.5 ± 0.5
- Absorbability upon oral administration relative to Compound B [6]: seven times as large as that of Compound B
